The values that follow come from EP4635565A1, “PRENYLATED TETRAHYDROQUINOLINES AND QUINOLINES WITH PPAR AGONIST ACTIVITY” (Fundación para la Investigación del Hospital Clínico de la …, priority 2024, dated 2025).

The assay deals with T1, hPPARγ (Homo sapiens, UniProt P37231).
T1 sequence (P37231 238-505): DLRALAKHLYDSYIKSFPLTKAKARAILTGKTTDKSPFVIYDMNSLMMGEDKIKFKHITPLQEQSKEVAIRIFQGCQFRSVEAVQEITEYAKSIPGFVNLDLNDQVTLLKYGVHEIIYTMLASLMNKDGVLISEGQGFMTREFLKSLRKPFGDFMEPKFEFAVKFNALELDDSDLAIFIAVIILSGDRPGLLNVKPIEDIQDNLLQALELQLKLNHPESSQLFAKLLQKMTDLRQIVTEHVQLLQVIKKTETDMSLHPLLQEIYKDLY
Put plainly: PPAR transactivation assay, human chimeric PPAR/Gal4 reporter luciferase system in Cos-7 cells (PPARγ). Format: cell-based. The method, then: Transfections were stopped after 16 h by adding DMEM/10% FCS. Cells were detached with trypsin, re-seeded in 96-well plates for 6 h in DMEM/10% FCS, and incubated for 24 h in DMEM/0.2% FCS with increasing concentrations of the test compounds or vehicle (DMSO, 0.1% final concentration). At the end of the experiment, cells were washed once with ice-cold PBS, lysed, and luciferase and β-galactosidase activities were measured. Luciferase activity was normalised to that of the internal control, β-galactosidase. All transfection experiments were performed at least five times.
EC50 values against human PPARα/Gal4, PPARβ/δ/Gal4 and PPARγ/Gal4 receptors.

Consider `CCOC(=O)CC/C(C)=C/CCC1CCc2cc(OCc3ccccc3)ccc2N1C` (centres unmarked) [Compound 5a, Ethyl (E)-7-(6-(benzyloxy)-1-methyl-1,2,3,4-tetrahydroquinolin-2-yl)-4-methylhept-4-enoate], for which the Emax at 10 µM (COS-7, read-out: Efficacy (%) at 10 µmol/L PPARγ) is 43%. Also, a half-maximal effect (human PPARγ/Gal4, Cos-7 cells, concentration range 0.001-10 µmol/L, NA: not active) (EC50) was put at 2700 nM.
